Data published in patent US20090233913A1, “OPTICAL ISOMERS OF DIHYDRO-2,3-BENZODIAZEPINES AND THEIR STEREOSELECTIVE SYNTHESIS” (priority 2005, published 2009).

What was measured:
male Wistar rats = experiment: Measurement of plasma corticosterone concentration in the rat (radio-immunoassay); type: in vivo; conditions: treatment per os, 15 mg/kg
Method: Examinations were carried out by using male wistar rats weighing 250-300 g. The animals were kept in an air-conditioned room, 12 hours artificial daylight was followed by 12 hours darkness. For four days prior to the experiments the animals got 0.5 ml water daily by a gastric-canule. The weight of the animals was measured at the evening before the experiments, then the animals were placed in separate cages.
Experiments were accomplished in the morning between 9 and 12 hours.
Before the treatment the animals were randomized to groups (7 animals/group)
The tested compounds were administered in a 15 mg/body weight kg dose, in 5 ml/kg solvent volume, using gastric-canule. The control animals were treated with solvent. The solvent composition contained 0.2 ml of 2.5 M HCl and 19.8 ml of distilled water.
After one hour of the treatment the animals were decapitated and about 2 ml of blood were collected in an ice-cold test tube containing 100 μl of 2% (WN) K-EDTA.
For the determination of corticosterone concentration, a corticosterone-3-CMO-BSA anti-body prepared in rabbit was used in a dilution of 1:40000. The antibody cross-reaction with desoxycorticosteron was 1.5%; with progesterone it was 2.3%. […]
The corticosterone concentration was measured from 10 μl plasma without extraction. […] The radioactivity was measured with LKB Clinigamma apparatus. […]

AMPA receptor = experiment: Spreading depression (SD) test in the chicken retina, in vitro; type: cell-based; conditions: antagonism of SD latency generated by 5 μM S-AMPA, isolated chicken retina, 30-minute incubation, room temperature; average ± deviation of the average
Method: The test was carried out according to method of Sheardown (1993).
Isolated eye-cups of 5-7 days old chickens (Shaver red-brow) were used. The sexes of the chickens were unidentified. Eyes of the animals were enucleated in narcosis caused by etherization, then the back sides of the eyes were cut and put in nutrient solution.
The composition of the medium is 100 mM NaCl, 3 mM KCl, 1 mM MgSO4, 1 mM CaCl2, 30 mM NaHCO3, 1 mM NaH2PO4 10 mM D-glukose, pH=7.3.
The spreading depression (SD) latency generated by 5 μM S-AMPA is determined at room temperature followed by a 90-minute stabilisation period. This value was considered as control value. Then the latency caused by AMPA was measured following a 30-minute incubation period in the presence of the test compound, then followed by further 60 minutes washing the recursion of the latency time to the control value was checked.
The elongation of the control latency with 30 sec corresponds to 100% antagonism. • Literature: Sheardown, M. J.: The triggering of spreading depression in the chicken retina: a pharmacological study. Brain Research 1993, 607: 189-194.

female Wistar rats = experiment: Toxicity test in rats: histological atrophy of thymus and bone-marrow after seven-day p.o. treatment; type: in vivo, rat; conditions: for thymus cortex atrophy (scores): female Wistar rats, 30 mg/kg p.o. once daily for seven days, score 0 (no change) to 4 (severe), average ± deviation of the average; for bone-marrow atrophy (scores): female, Wistar, po, 30 mg/kg, 7 days; for bone-marrow atrophy (scores) / effect on the hystological pictures of the thymus and bone-marrow (in words): rat, in vivo
Method: The examination was carried out using female Wistar rats. One day before the treatment the animals were assigned to randomised groups based on their weight (10 animals/group). Each active ingredient was suspended in a solution of 0.4% hydroxypropylmethylcellulose (Methocell F4 M, Dow Chemical Company, USA) and administered once daily for seven days by gastric-canule. The daily doses were 30 mg/kg, the animals of the control group were treated with the solvent. At the end of the experiments the animals were sacrificed by incising of the arteries of thigh in narcosis caused by ether.
After the thymus-ectomy thymi were fixed in a solution of formaline buffered with phosphate, then embedded in paraffin, pigmented with hemalaun-eosin.
Bone-marrow film preparations were made from the femur of the animals and pigmented according to Grimsa method (Sheenan D. C.-Hrapchak B. B.: Theory and practice of histotechnology (2nd ed.) Mosby Company, St. Louis, USA 1980).
The histological athrophy was scored as follows: 0—there is no change, 1—change appears, 2—slight change, 3—middle severe change, marked change, 4—severe, obvious, wide change. The rating was accomplished blind without any information about the treatment.
Groups were compared by KRUSKAL WALLIS ANOVA test (Ranks and Median). In case of significant deviation (p<0.05) WALD-WOLFOWITZ test was used for comparison.

Compound: CC(=O)N1N=C(c2ccc(N)c(C)c2)c2cc(Cl)ccc2C[C@@H]1C [Example 16, (S)-(+)-3-acetyl-1-(4-amino-3-methylphenyl)-8-chloro-4-methyl-4,5-dihydro-3H-2,3-benzodiazepine]
- effect on the plasma corticosterone concentration (in words) (male Wistar rats): elevated the plasma corticosterone concentration

Compound: CC(=O)N1N=C(c2ccc(N)c(C)c2)c2cc3c(cc2C[C@H]1C)OCO3 [Example 4, (R)-(−)-7-acetyl-5-(4-amino-3-methylphenyl)-8-methyl-8,9-dihydro-7H-1,3-dioxolo[4,5-h][2,3] benzodiazepine]
- EC50 (AMPA receptor): 1800 ± 100 nM
- thymus cortex atrophy (scores) (female Wistar rats): 0.30 ± 0.21 scores
- bone-marrow atrophy (scores) (female Wistar rats): 0.40 ± 0.27 scores
- effect on the hystological pictures of the thymus and bone-marrow (in words) (female Wistar rats): only in a minimal degree

Compound: CC(=O)N1N=C(c2ccc(N)c(C)c2)c2cc3c(cc2C[C@@H]1C)OCO3 [Example 6, (S)-(+)-7-Acetyl-5-(4-amino-3-methylphenyl)-8-methyl-8,9-dihydro-7H-1,3-dioxolo[4,5-h][2,3] benzodiazepine]
- thymus cortex atrophy (scores) (female Wistar rats): 2.9 ± 0.43 scores
- bone-marrow atrophy (scores) (female Wistar rats): 2.1 ± 0.31 scores
- effect on the hystological pictures of the thymus and bone-marrow (in words) (female Wistar rats): caused significant hystological atrophy in the thymus and the bone-marrow

Compound: CC(=O)N1N=C(c2ccc(N)c(C)c2)c2cc(Cl)ccc2C[C@H]1C [Example 15, (R)-(−)-3-acetyl-1-(4-amino-3-methylphenyl)-8-chloro-4-methyl-4,5-dihydro-3H-2,3-benzodiazepine]
- EC50 (AMPA receptor): 3900 ± 200 nM
- effect on the plasma corticosterone concentration (in words) (male Wistar rats): did not affect the plasma corticosterone concentration
